Biological target: 5-hydroxytryptamine receptor 2A (Homo sapiens, UniProt P28223)
Assay: Antagonist activity at human 5HT2A receptor expressed in HEK cells assessed as intracellular calcium luminescence by aequorin assay
Format: functional, cell-based, HEK293
Details: not given

5-hydroxytryptamine receptor 2A, sequence (P28223 whole entry): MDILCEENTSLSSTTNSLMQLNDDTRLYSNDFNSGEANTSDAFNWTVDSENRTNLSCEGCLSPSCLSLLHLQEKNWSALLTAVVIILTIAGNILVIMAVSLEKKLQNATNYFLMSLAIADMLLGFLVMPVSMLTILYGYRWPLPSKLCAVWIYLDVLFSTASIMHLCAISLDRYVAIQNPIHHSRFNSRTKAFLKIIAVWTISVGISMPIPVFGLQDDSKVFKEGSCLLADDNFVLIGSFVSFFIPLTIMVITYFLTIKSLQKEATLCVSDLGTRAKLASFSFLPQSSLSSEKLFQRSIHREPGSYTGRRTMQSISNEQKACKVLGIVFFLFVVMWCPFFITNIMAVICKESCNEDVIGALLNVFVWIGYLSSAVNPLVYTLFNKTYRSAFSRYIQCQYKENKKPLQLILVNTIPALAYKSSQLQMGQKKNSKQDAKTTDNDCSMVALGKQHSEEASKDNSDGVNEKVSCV

Question: With `C1=C(N2CCNCC2)c2nccn2Cc2ccccc21` as the compound, how does the Ki read?
Answer: 7.94 nM

Question: For `O=C(O)CCN1CCN(C2=Cc3ccccc3Cn3ccnc32)CC1`, which Ki is on record?
Answer: 316 nM

Question: With `CC(C)(CN1CCN(C2=Cc3ccccc3Cn3ccnc32)CC1)C(=O)O` as the compound, how does the Ki read?
Answer: 79.4 nM

Question: For `CC(C)(CN1CCCN(C2=Cc3ccccc3Cn3ccnc32)CC1)C(=O)O`, which Ki is on record?
Answer: > 5010 nM

Question: Which Ki does the source give for `CC1CN(C2=Cc3ccccc3Cn3ccnc32)CC(C)N1CCC(=O)O` (configuration not stated) here?
Answer: 39.8 nM

Question: For `C=C(CN1CCN(C2=Cc3ccccc3Cn3ccnc32)CC1)C(=O)O`, which Ki is on record?
Answer: 200 nM

Question: For `Cc1nc2n(c1C)Cc1ccccc1C=C2N1CCN(CC(C)(C)C(=O)O)CC1`, which Ki is on record?
Answer: 398 nM

Test system: not listed separately
Assay: AUC (0 to 8 hrs) ratio of drug level in brain to blood in rat at 3 mg/kg, po
Format: ADME, organism-based
Set-up: dose 3 mg/kg, route oral
Details: read-out: Ratio AUC

Question: For `CC(C)(CN1CCN(C2=Cc3ccccc3Cn3ccnc32)CC1)C(=O)O`, which Kp is on record?
Answer: 0.02

Biological target: T1, 5-hydroxytryptamine receptor 2C (Homo sapiens, UniProt P28335)
T1 sequence (P28335 whole entry): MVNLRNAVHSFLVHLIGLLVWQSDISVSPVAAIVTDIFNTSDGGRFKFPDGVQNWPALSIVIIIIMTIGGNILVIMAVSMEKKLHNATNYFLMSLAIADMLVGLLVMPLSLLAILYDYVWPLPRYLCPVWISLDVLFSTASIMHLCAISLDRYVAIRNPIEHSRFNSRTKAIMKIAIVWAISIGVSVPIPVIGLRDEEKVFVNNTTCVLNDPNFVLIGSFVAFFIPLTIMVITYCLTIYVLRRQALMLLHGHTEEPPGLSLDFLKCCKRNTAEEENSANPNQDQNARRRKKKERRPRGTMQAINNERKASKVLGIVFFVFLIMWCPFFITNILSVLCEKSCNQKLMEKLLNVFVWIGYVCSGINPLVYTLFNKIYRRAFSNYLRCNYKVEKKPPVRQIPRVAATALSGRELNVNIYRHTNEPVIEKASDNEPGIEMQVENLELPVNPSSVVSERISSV
Assay: Antagonist activity at human 5HT2C receptor expressed in human SHSY5Y cells by FLPR assay
Format: functional, cell-based, SH-SY5Y
Details: not given

Question: Which Ki does the source give for `C1=C(N2CCNCC2)c2nccn2Cc2ccccc21` here?
Answer: 20 nM

Question: With `O=C(O)CCN1CCN(C2=Cc3ccccc3Cn3ccnc32)CC1` as the compound, how does the Ki read?
Answer: > 794 nM

Question: Which Ki does the source give for `CC(C)(CN1CCN(C2=Cc3ccccc3Cn3ccnc32)CC1)C(=O)O` here?
Answer: 50.1 nM

Question: Which Ki does the source give for `CC(C)(CN1CCCN(C2=Cc3ccccc3Cn3ccnc32)CC1)C(=O)O` here?
Answer: > 2000 nM

Question: For `CC1CN(C2=Cc3ccccc3Cn3ccnc32)CC(C)N1CCC(=O)O` (configuration not stated), which Ki is on record?
Answer: 158 nM

Question: Which Ki does the source give for `C=C(CN1CCN(C2=Cc3ccccc3Cn3ccnc32)CC1)C(=O)O` here?
Answer: 501 nM

Question: With `Cc1nc2n(c1C)Cc1ccccc1C=C2N1CCN(CC(C)(C)C(=O)O)CC1` as the compound, how does the Ki read?
Answer: 63.1 nM

Test system: not listed separately
Assay: Half life in rat at 1 mg/kg, iv and 3 mg/kg, po
Format: ADME, organism-based
Details: in vivo

Question: For `CC(C)(CN1CCN(C2=Cc3ccccc3Cn3ccnc32)CC1)C(=O)O`, which half-life is on record?
Answer: 42 min

Test system: not listed separately
Assay: Volume of distribution at steady state in rat at 1 mg/kg, iv and 3 mg/kg, po
Format: ADME, organism-based
Details: in vivo, read-out: Vdss

Question: With `CC(C)(CN1CCN(C2=Cc3ccccc3Cn3ccnc32)CC1)C(=O)O` as the compound, how does the Vd read?
Answer: 1.9 L/kg

Biological target: 5-hydroxytryptamine receptor 2B (Homo sapiens, UniProt P41595)
Sequence (P41595 whole entry): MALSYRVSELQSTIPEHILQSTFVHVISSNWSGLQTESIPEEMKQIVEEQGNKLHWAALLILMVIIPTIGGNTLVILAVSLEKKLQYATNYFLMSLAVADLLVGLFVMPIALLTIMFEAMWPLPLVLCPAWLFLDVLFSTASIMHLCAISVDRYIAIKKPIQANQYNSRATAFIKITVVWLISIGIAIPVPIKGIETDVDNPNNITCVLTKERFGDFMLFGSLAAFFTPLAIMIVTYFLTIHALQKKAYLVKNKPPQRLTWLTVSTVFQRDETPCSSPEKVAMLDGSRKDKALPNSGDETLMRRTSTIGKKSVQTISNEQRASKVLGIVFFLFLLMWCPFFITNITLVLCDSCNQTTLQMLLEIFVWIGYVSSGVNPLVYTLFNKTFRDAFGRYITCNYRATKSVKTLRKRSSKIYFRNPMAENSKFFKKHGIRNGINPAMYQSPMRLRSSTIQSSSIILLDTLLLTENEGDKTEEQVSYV
Assay: Antagonist activity at human 5HT2B receptor expressed in human SHSY5Y cells by FLPR assay
Format: functional, cell-based, SH-SY5Y
Details: not given

Question: Which Ki does the source give for `C1=C(N2CCNCC2)c2nccn2Cc2ccccc21` here?
Answer: 316 nM

Question: With `O=C(O)CCN1CCN(C2=Cc3ccccc3Cn3ccnc32)CC1` as the compound, how does the Ki read?
Answer: > 794 nM

Question: For `CC(C)(CN1CCN(C2=Cc3ccccc3Cn3ccnc32)CC1)C(=O)O`, which Ki is on record?
Answer: 1580 nM

Question: With `CC(C)(CN1CCCN(C2=Cc3ccccc3Cn3ccnc32)CC1)C(=O)O` as the compound, how does the Ki read?
Answer: > 2000 nM

Question: With `CC1CN(C2=Cc3ccccc3Cn3ccnc32)CC(C)N1CCC(=O)O` (configuration not stated) as the compound, how does the Ki read?
Answer: 631 nM

Question: With `C=C(CN1CCN(C2=Cc3ccccc3Cn3ccnc32)CC1)C(=O)O` as the compound, how does the Ki read?
Answer: > 794 nM

Question: For `Cc1nc2n(c1C)Cc1ccccc1C=C2N1CCN(CC(C)(C)C(=O)O)CC1`, which Ki is on record?
Answer: 15.8 nM

Biological target: Histamine H1 receptor (Homo sapiens, UniProt P35367)
Sequence (P35367 whole entry): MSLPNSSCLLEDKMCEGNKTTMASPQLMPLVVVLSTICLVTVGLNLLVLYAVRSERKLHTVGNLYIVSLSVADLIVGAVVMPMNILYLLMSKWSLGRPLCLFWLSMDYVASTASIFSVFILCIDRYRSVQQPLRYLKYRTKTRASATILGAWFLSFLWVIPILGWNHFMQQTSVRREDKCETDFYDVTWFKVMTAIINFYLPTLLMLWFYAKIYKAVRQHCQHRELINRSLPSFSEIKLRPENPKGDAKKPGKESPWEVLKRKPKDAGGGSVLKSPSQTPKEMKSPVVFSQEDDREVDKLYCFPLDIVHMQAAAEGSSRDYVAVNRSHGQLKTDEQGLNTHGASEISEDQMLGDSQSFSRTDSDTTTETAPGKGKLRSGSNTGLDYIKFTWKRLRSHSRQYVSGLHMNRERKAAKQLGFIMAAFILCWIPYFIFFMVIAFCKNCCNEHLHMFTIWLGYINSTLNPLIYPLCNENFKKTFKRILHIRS
Assay: Antagonist activity at human recombinant histamine H1 receptor expressed in CHO cells by FLPR assay
Format: functional, cell-based
Details: not given

Question: With `C1=C(N2CCNCC2)c2nccn2Cc2ccccc21` as the compound, how does the Ki read?
Answer: 0.631 nM

Question: For `O=C(O)CCN1CCN(C2=Cc3ccccc3Cn3ccnc32)CC1`, which Ki is on record?
Answer: 50.1 nM

Question: Which Ki does the source give for `CC(C)(CN1CCN(C2=Cc3ccccc3Cn3ccnc32)CC1)C(=O)O` here?
Answer: 25.1 nM

Question: Which Ki does the source give for `CC(C)(CN1CCCN(C2=Cc3ccccc3Cn3ccnc32)CC1)C(=O)O` here?
Answer: 50.1 nM

Question: Which Ki does the source give for `CC1CN(C2=Cc3ccccc3Cn3ccnc32)CC(C)N1CCC(=O)O` (configuration not stated) here?
Answer: 20 nM

Question: With `C=C(CN1CCN(C2=Cc3ccccc3Cn3ccnc32)CC1)C(=O)O` as the compound, how does the Ki read?
Answer: 31.6 nM

Question: With `Cc1nc2n(c1C)Cc1ccccc1C=C2N1CCN(CC(C)(C)C(=O)O)CC1` as the compound, how does the Ki read?
Answer: 39.8 nM

Test system: not listed separately
Assay: Blood clearance in rat at 1 mg/kg, iv and 3 mg/kg, po
Format: ADME, organism-based
Details: not given

Question: For `CC(C)(CN1CCN(C2=Cc3ccccc3Cn3ccnc32)CC1)C(=O)O`, which clearance is on record?
Answer: 38 mL/min/kg

Biological target: T2, Alpha-1B adrenergic receptor (Homo sapiens, UniProt P35368)
T2 sequence (P35368 whole entry): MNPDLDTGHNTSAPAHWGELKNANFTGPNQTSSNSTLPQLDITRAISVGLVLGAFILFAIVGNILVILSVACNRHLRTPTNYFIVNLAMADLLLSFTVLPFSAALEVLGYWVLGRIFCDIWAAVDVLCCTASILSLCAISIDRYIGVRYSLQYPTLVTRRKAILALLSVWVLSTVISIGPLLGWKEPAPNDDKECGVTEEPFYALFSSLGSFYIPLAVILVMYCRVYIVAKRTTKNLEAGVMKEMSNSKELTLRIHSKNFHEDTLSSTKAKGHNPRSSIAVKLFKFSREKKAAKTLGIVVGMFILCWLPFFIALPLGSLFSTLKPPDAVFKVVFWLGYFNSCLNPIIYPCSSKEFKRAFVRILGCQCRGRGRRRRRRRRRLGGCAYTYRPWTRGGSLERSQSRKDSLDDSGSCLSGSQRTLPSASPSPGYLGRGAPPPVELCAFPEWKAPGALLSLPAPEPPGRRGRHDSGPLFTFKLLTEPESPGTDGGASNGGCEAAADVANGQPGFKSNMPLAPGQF
Assay: Antagonist activity at human adrenergic Alpha-1B receptor assessed as intracellular calcium luminescence by cell based aequorin assay
Format: functional
Details: not given

Question: For `C1=C(N2CCNCC2)c2nccn2Cc2ccccc21`, which Ki is on record?
Answer: 3.16 nM

Biological target: T3, Alpha-1A adrenergic receptor (Homo sapiens, UniProt P35348)
T3 sequence (P35348 whole entry): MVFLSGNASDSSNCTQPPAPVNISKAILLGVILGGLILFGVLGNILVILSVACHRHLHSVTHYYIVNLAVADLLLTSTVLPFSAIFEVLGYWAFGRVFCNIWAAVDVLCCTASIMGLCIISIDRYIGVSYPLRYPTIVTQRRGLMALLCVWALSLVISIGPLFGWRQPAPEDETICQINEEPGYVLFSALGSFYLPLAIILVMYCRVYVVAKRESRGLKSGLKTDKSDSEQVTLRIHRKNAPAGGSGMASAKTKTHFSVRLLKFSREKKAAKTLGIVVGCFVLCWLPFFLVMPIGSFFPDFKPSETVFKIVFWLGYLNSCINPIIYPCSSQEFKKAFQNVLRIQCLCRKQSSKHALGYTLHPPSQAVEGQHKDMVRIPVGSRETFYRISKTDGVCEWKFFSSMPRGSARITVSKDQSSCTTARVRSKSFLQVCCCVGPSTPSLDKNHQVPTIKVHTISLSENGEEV
Assay: Antagonist activity at human adrenergic alpha1A receptor assessed as intracellular calcium luminescence by cell based aequorin assay
Format: functional
Details: not given

Question: For `C1=C(N2CCNCC2)c2nccn2Cc2ccccc21`, which Ki is on record?
Answer: 3.98 nM

Test system: not listed separately
Assay: Fraction unbound in rat blood
Format: ADME, tissue-based
Details: not given

Question: For `CC(C)(CN1CCN(C2=Cc3ccccc3Cn3ccnc32)CC1)C(=O)O`, which fraction unbound is on record?
Answer: > 0.5

Test system: not listed separately
Assay: Fraction unbound in rat brain
Format: ADME, tissue-based
Details: not given

Question: Which fraction unbound does the source give for `CC(C)(CN1CCN(C2=Cc3ccccc3Cn3ccnc32)CC1)C(=O)O` here?
Answer: > 0.5

Test system: not listed separately
Assay: Oral bioavailability in rat at 3 mg/kg
Format: ADME, organism-based
Details: in vivo

Question: With `CC(C)(CN1CCN(C2=Cc3ccccc3Cn3ccnc32)CC1)C(=O)O` as the compound, how does the bioavailability read?
Answer: 61%

Reference: ChEMBL document CHEMBL1221290, “Novel imidazobenzazepine derivatives as dual H1/5-HT2A antagonists for the treatment of sleep disorders” (Bioorg Med Chem Lett, 2010)
